Measured values reported in patent publication US6916616B2, “Stabilized aqueous nucleoside triphosphate solutions” (priority 1996, dated 2005).

Tests used:
Type in all cases: physicochemical
[1] = Stress experiments of d-NTP solutions at 35° C., triphosphate content by HPLC; conditions: pH 8.3 compared to pH 7.5, 35° C., three independent stress experiments, samples between 7 and 89 days
Description: d-NTP solutions at a concentration of 100 to 110 mmol/l were adjusted to pH values between 7.5 and 8.3 with sodium hydroxide solution. The sample was stored at 35° C., 22° C., 4° C. and −20° C. Aliquots were removed at various time points and the purity was examined by means of HPLC. The relative amount of the tri, di and monophosphate as well as of the free base was determined by integrating the areas. The stabilization was estimated by the following formula from three independent stress experiments of d-NTPs at pH 8.3 and 7.5 at 35° C. in which samples were taken at intervals between 7 and 89 days. Δ content (pH 8.3)−Δ content (7.5)×100 Δ content (pH 7.5) in which Δ content (pH . . . )=content (t=0)−content (t)

[2] = Stabilization at room temperature (real-time model, 204 days, 20° C.); conditions: for difference in decrease of triphosphate content pH 8.3 vs pH 7.5: 204 days
Description: d-NTP solutions at a concentration of 100 to 110 mmol/l were adjusted to pH values between 7.5 and 8.3 with sodium hydroxide solution. The sample was stored at 35° C., 22° C., 4° C. and −20° C. Aliquots were removed at various time points and the purity was examined by means of HPLC. The relative amount of the tri, di and monophosphate as well as of the free base was determined by integrating the areas.
After 204 days (20° C.) the difference in the pH stabilization became apparent (in the real-time model). […] In the case of d-GTP solutions the triphosphate content decreased for example by ca. 6.8% at pH 7.5 and by ca. 5.2% at pH 8.3 (difference 23%).

[3] = Determination of the pH optimum of the d-NTPs (35 days at 35° C., HPLC); conditions: 100 to 110 mmol/l
Description: d-NTP solutions (dCTP, dTTP, dUTP) at a concentration of 100 to 110 mmol/l were adjusted to pH values between 7.5 and 12 (d-ATP, dGTP not pH 7.9 and 8.3) with sodium hydroxide solution. The sample was stressed for 35 days at 35° C. and subsequently the purity was examined by means of HPLC. The relative amount of the tri, di and monophosphate as well as of the free base was determined by integrating the areas.

SMILES	stabilization, average value [1]	stabilization, maximum value [1]	stabilization, minimum value [1]	difference in decrease of triphosphate content pH 8.3 vs pH 7.5 [2]	decrease of triphosphate content ([2]; pH 7.5, 204 days)	decrease of triphosphate content ([2]; pH 8.3, 204 days)	degradation up to pH 12 [3]
Nc1ncnc2c1ncn2[C@H]1C[C@H](O)[C@@H](COP(=O)(O)OP(=O)(O)OP(=O)(O)O)O1 [d-ATP]	19%	33%	9%	17%	ca. 7.6%	ca. 6.3%	–
Nc1ccn([C@H]2C[C@H](O)[C@@H](COP(=O)(O)OP(=O)(O)OP(=O)(O)O)O2)c(=O)n1 [d-CTP]	20%	37%	10%	–	–	–	deaminated at pH 12 to form d-UTP
Nc1nc2c(ncn2[C@H]2C[C@H](O)[C@@H](COP(=O)(O)OP(=O)(O)OP(=O)(O)O)O2)c(=O)[nH]1 [d-GTP]	21%	30%	12%	23%	ca. 6.8%	ca. 5.2%	–
Cc1cn([C@H]2C[C@H](O)[C@@H](COP(=O)(O)OP(=O)(O)OP(=O)(O)O)O2)c(=O)[nH]c1=O [d-TTP]	5%	17%	26%	–	–	–	–
O=c1ccn([C@H]2C[C@H](O)[C@@H](COP(=O)(O)OP(=O)(O)OP(=O)(O)O)O2)c(=O)[nH]1 [d-UTP]	5%	15%	25%	–	–	–	–
